pIC50: −log10 of the molar value.

Data on two molecules can be found in US12403121B2, “Anticancer rocaglamide derivatives” (priority 2018, dated 2025).

Data set [1] deals with Sch10545 Nf2−/− schwannoma cells. The experiment in a line: 3-day resazurin cell proliferation assay, Sch10545 schwannoma cells. It is filed as cell-based, mouse. To be noted: Mus musculus, 72 h, read-out: IC50 (nM) Sch10545 Nf2−/− schwannoma cells. The procedure: (§1) The human MPNST cell lines, ST8814, STS26T, S462, T265, and luciferase-expressing ST8814-Luc, the human NF2-deficient meningioma cell line Ben-Men-1, the NJ2 mouse schwannoma cell line Sch10545, and primary human Schwann cells were propagated as previously described. Oblinger et al., Neuro-Oncol., 18:1265-1277 (2016). The Ewing sarcoma cell line A673 and the osteosarcoma cell lines, 143B and MG-63, were grown in Dulbecco's Modified Eagle's (DME) medium (Millipore-Sigma) supplemented with 10% fetal bovine serum (FBS; Atlanta Biological). The silvestrol-sensitive 697 and silvestrol-resistant 697-R pre-B acute lymphoblastic leukemia cells (Gupta et al., AAPS J., 13:357-364 (2011)), the Ewing sarcoma cell line TC32, the osteosarcoma cell lines, Saos2 and OS17, and the rhabdomyosarcoma cell line RD were cultivated in RPMI 1640 medium (Millipore-Sigma) plus 10% FBS.
(§2) Actively-growing cells were seeded in 96-well plates (Sarstedt) at 2,000 cells/well for Ben-Men-1 and RD cells, 30,000 cells/well for 697 and 697-R cells, and 4,000 cells/well for all other cell lines. The following day, cells were treated with various concentrations of each compound or and 0.05% of DMSO as the control for six days for MG-63 cells or three days for all remaining cell lines. Cell proliferation was assessed using resazurin assays and the IC50 value calculated. Cell cycle analysis was performed accordingly. Burns et al., Cancer Res., 73:792-803 (2013).
(§3) To search for compounds with better drug-like properties, the inventors conducted a side-by-side comparison of ten rocaglates lacking the dioxanyl ring with silvestrol for growth-inhibitory activity in a panel of MPNST, schwannoma, and meningioma cell lines, which they had previously shown to be sensitive to the antiproliferative action of silvestrol. […] The average IC50 value of each rocaglate was determined by 3-day resazurin proliferation assays. […] Further structure and activity comparison discerned some positions on the cyclopenta[b]benzofuran scaffold that affected the antiproliferative activity of rocaglates.

Data set [2] concerns Ben-Men-1 NF2−/− meningioma cells. The experiment in a line: 3-day resazurin cell proliferation assay, Ben-Men-1 meningioma cells. As to conditions: Homo sapiens, 72 h, read-out: IC50 (nM) Ben-Men-1 NF2−/− meningioma cells. The data set is classed as cell-based, human. The protocol: as §1, §2, §3
In general terms: Resazurin is reduced to fluorescent resorufin, in cell work by metabolically active cells.

For data set [3], the system named is STS26T NF1+/+ MPNST cells. The experiment in a line: 3-day resazurin cell proliferation assay, STS26T MPNST cells. To be noted: Homo sapiens, STS-26T, 72 h, read-out: IC50 (nM) STS26T NF1+/+ MPNST cells. It is filed as cell-based, human. The protocol:
as §1, §2, §3

The subject of data set [4] is ST8814 NF1−/− MPNST cells. The experiment in a line: 3-day resazurin cell proliferation assay, ST8814 MPNST cells. It is filed as cell-based, human. To be noted: Homo sapiens, ST88-14, 72 h, read-out: IC50 (nM) ST8814 NF1−/− MPNST cells. The procedure: as §1, §2, §3
Data set [5] relates to panel of MPNST, schwannoma, and meningioma cell lines. Nature of the data set: Side-by-side growth inhibition comparison with silvestrol in a cell line panel. The data set is classed as cell-based. As to conditions: all cell lines tested. The procedure: as §2, §3
Data set [6] has as its system STS26T and ST8814 MPNST cells. Nature of the data set: Flow cytometry cell cycle analysis. The data set is classed as cell-based, human. To be noted: one- or two-IC50 doses, three days. The protocol: as §2
Background: A flow cytometer gives signals particle by particle.

In a further data set the test system is STS26T cells. The experiment in a line: Western blots of treated MPNST cells. As to conditions: 1 or 2 IC50. It is filed as cell-based, human. The procedure: FIGS. 2A and 2B provide images showing that DDR and Roc increase caspase and PARP cleavage and elevated the levels of γH2AX while decreasing the expression of AKT and ERKs in MPNST cells. (A) Protein lysates prepared from STS26T cells treated for 3 days with 1 or 2 IC50 of DDR or Roc were analyzed by Western blots for the expression of various apoptosis-related proteins and mitogenic kinases AKT and ERK1/2. GAPDH served as a loading control. (B) Western blot analysis was performed on lysates from STS26T cells treated for 1 and 2 days with 1 or 2 IC50 of DDR for the expression of the DNA-damage response biomarker phosphorylated H2A.X (γH2A.X). As a positive control, lysates from HMS-97 human malignant schwannoma cells irradiated with 4 Grays (Gy) of X-ray were used.
(§4) Subconfluent cells were treated with the indicated doses of Roc or DDR for 24-72 hours and then harvested in cell lysis buffer (Cell Signaling Technology) containing 1 mM phenylmethylsufonylfluoride and protease inhibitor cocktail (Sigma-Aldrich). The protein content in cleared lysates was quantitated using the microBCA assay (ThermoFisher). Equal amounts of protein were run in sodium dodecyl sulfate-polyacrylamide gels and electrotransferred onto Immobilon-FL PVDF membranes (Millipore). The antibodies used were directed against: MDR1/ABCB1 (#13978), insulin-like growth factor-1 receptor β subunit (IGF-1Rβ; #9750), AKT (#9272), ERK1/2 (#4695), glyceraldehyde-3-phosphate dehydrogenase (GAPDH; #5174), caspase-3 (#9662), caspase-7 (#9492), cleaved caspase-7 (#9491), poly(ADP-ribose) polymerase (PARP; #9532), cleaved PARP (#5625), and phospho-histone H2A.X (pH2A.X[Ser′^39]; #9718; all from Cell Signaling Technology), NKX2.2 (sc-514161), LSD1 (sc-136174), and survivin (sc-17779; Santa Cruz Biotechnology), and FLI1 (ab15289) and cleaved caspase-3 (CC3; ab32042; Abeam). Protein bands were detected using IRDye® infrared fluorescent dye-labeled secondary antibodies and scanning on an Odyssey CLx imaging system (LI-COR Biosciences) using the appropriate fluorescent channel at a resolution of 84 μm.
To confirm induction of apoptosis in rocaglamide-treated MPNST cells, the inventors analyzed protein expression of several markers important for this process. […] A concomitant decrease in the amounts of intact caspases 3 and 7 and PARP was observed, consistent with the enhanced cleavage of these apoptotic markers and possibly due to direct effects of these rocaglamides on protein translation. Likewise, the levels of the pro-survival kinases AKT and ERK1/2 were diminished in rocaglamide-treated MPNST cells.
(In general: Immunoblotting shows a protein as a band on a membrane.)

The test system of data set [7] is A673, TC32, 143B, MG-63, Saos2, OS17 and RD sarcoma cell lines. Nature of the data set: Cell proliferation in Ewing sarcoma, osteosarcoma and rhabdomyosarcoma cell lines. It is filed as cell-based. The procedure:
as §1, §2
Since MPNSTs comprise only ˜2% of all sarcomas (Farid et al. Oncologist, 19:193-201 (2014)), the inventors expanded their testing of Roc and DDR to three other more prevalent sarcomas particularly in children and young adults: Ewing sarcoma, osteosarcoma, and rhabdomyosarcoma.

The subject of data set [8] is TC32 Ewing sarcoma, 143B osteosarcoma, and RD rhabdomyosarcoma cells. Nature of the data set: Western blots of treated sarcoma cells. The data set is classed as cell-based. The procedure:
FIGS. 7A-7C provide images showing DDR and Roc reduce multiple signaling proteins important for the growth and survival of sarcoma cells. Lysates prepared from TC32 Ewing sarcoma (A), 143B osteosarcoma (B), and RD rhabdomyosarcoma (C) cells were treated 1 and 2 days with the indicated concentrations of DDR or Roc and analyzed by Western blotting for the expression of various oncogenic driver proteins. GAPDH was used as a loading control.
as §4
To further examine the molecular mechanisms underlying the antiproliferative effects of rocaglamides, the inventors treated TC32 Ewing sarcoma, 143B osteosarcoma, and RD rhabdomyosarcoma cells with 1- or 2-IC50 dose of DDR or rocaglamide for 1-2 days followed by Western blotting for several known drivers of cell survival and proliferation. […] They also observed reduction of the IGF-1Rβ levels in rocaglamide-treated MPNST cells. In addition, Roc and DDR decreased the levels of AKT, ERKs, cyclin D1 and survivin in treated TC32, 143B, and RD cells (FIG. 7). Intriguingly, the oncogenic fusion protein EWS-FLI1, which acts as an aberrant transcription factor in Ewing sarcoma, was not affected in Roc- and DDR-treated TC32 Ewing sarcoma cells (FIG. 7A). […] However, the expression of lysine demethylase 1 (LSD1), which modulates EWS-FLI1 transcriptional activity (Sankar et al., Oncogene, 32:5089-5100 (2013)), and NKX2.2, an EWS-FL11-regulated gene necessary for oncogenic transformation (Smith et al., Cancer Cell, 9:405-416 (2006)), were diminished by these rocaglamides in TC32 cells (FIG. 7A).

In data set [9] the test system is 697-R leukemic cells (overexpress MDR1/Pgp). The experiment in a line: Cell proliferation, MDR1-overexpressing silvestrol-resistant 697-R leukemic cells. It is filed as cell-based. To be noted: MDR1, 72 h, read-out: IC50 in 697-R cells. The procedure:
(§5) FIGS. 3A-3C provide graphs showing that, unlike silvestrol, DDR and Roe inhibits proliferation of MDR1-overexpressing 697-R leukemic cells at IC50 values similar to parental silvestrol-sensitive 697 cells. Cell proliferation was measured on 697-R and parental 697 pre-B leukemia cells treated for 3 days with various concentrations of silvestrol (A), DDR (B), and Roc (C). Each treatment was performed in six replicates, and each experiment was repeated twice. Shown are representative dose-response growth inhibition curves from experiments for all three drugs that were run in parallel. The IC50 values for individual growth curves are shown in the graph insets.
(§6) The human MPNST cell lines, ST8814, STS26T, S462, T265, and luciferase-expressing ST8814-Luc, the human NF2-deficient meningioma cell line Ben-Men-1, the NJ2 mouse schwannoma cell line Sch10545, and primary human Schwann cells were propagated as previously described. Oblinger et al., Neuro-Oncol., 18:1265-1277 (2016). […]
(§7) Actively-growing cells were seeded in 96-well plates (Sarstedt) at 2,000 cells/well for Ben-Men-1 and RD cells, 30,000 cells/well for 697 and 697-R cells, and 4,000 cells/well for all other cell lines. […] Cell proliferation was assessed using resazurin assays and the IC50 value calculated. […]

The next data set deals with 697 pre-B leukemia cells. The experiment in a line: Cell proliferation, parental silvestrol-sensitive 697 leukemic cells. It is filed as cell-based. As to conditions: 72 h, 3 days treatment. The protocol:
as §5, §6, §7

For data set [10] the following is noted: Kinghorn et al. 2016 and NCI Developmental Therapeutics Program study, same conditions; cited from earlier work.
For data set [11] the following is noted: Saradhi et al. 2011; cited from earlier work.
For data set [12], the target named is multidrug resistance 1 (MDR1) transporter (Homo sapiens, UniProt P08183). To be noted: cited from earlier work.

For `COc1ccc([C@@]23Oc4cc(OC)cc(OC)c4[C@]2(O)[C@H](O)[C@H](C(N)=O)[C@H]3c2ccccc2)cc1` [Didesmethylrocaglamide], the IC50 in data set [1] is 10 nM; in data set [2] it was 5 nM; in data set [3] it was 5 nM; in data set [4], 5 nM. In data set [5], the “potency relative to silvestrol” value is given as ~2 fold. Also, the G2/M fraction result in [6] is on record as “marked increase in the GVM fraction”. For the same molecule, in the data set on STS26T cells (STS26T MPNST cells), the “levels of γH2AX” value was “elevated”. In addition, in the data set with STS26T cells (STS26T cells, 3 days), the “cleavage of caspases 3 and 7 and PARP” value is “increased cleavage”. The “expression of AKT and ERKs” value in the data set on STS26T cells (STS26T cells, 3 days) is listed as “decreasing”. Also, the “IC50 values of DDR compared with Roc” value in data set [7] (every sarcoma cell line tested) was “lower IC5O values than Roc”. Besides, the “activity against sarcoma cell lines” value in data set [7] (two Ewing sarcoma, four osteosarcoma, one rhabdomyosarcoma cell lines) is reported as “highly active”. Moreover, the “levels of the β subunit of IGF-1R” value in data set [8] (1- or 2-IC50 dose, 1-2 days, all three sarcoma cell lines) is “reliably reduced”. For the same molecule, in data set [8] (TC32, 143B, and RD cells, 1- or 2-IC50 dose, 1-2 days), the “levels of AKT, ERKs, cyclin D1 and survivin” value is on record as “decreased”. Besides, in data set [8] (TC32 Ewing sarcoma cells), the “EWS-FLI1 fusion protein level” value is listed as “not affected”. For the same molecule, in data set [8] (TC32 cells), the “expression of LSD1 and NKX2.2” value is recorded as “diminished”.
In the case of `COC(=O)[C@H]1[C@@H](O)[C@@]2(O)c3c(OC)cc(O[C@@H]4O[C@@H]([C@H](O)CO)CO[C@H]4OC)cc3O[C@@]2(c2ccc(OC)cc2)[C@@H]1c1ccccc1` [Silvestrol, reference compound], the IC50 turned out to be 70 nM in [1], 10 nM in data set [2], 10 nM in data set [3] and 40 nM in data set [4]. In addition, the pIC50 (in general, the IC50 on a negative log10 scale, so that one unit is a factor of ten) is 7.59 in data set [9] and 8.46 in the data set with 697 pre-B leukemia cells. Moreover, in data set [10], the “pulmonary toxicity in dogs” value is given as “unexpected pulmonary toxicity”. Besides, the oral bioavailability result in data set [11] is listed as “less than 2%”. Moreover, in data set [12], the “substrate for the MDR1 transporter” value is given as “substrate”.
